In one series the test system is CYP3A4. Description: Human CYP 3A4 Induction Assay (mRNA, cryopreserved human hepatocytes). The series is classed as in vitro ADME. Particulars: 10 uM test compound, 72 hours, percent of control (POC), rifampin positive control. The source says: Human CYP 3A4 Induction Assay
In a further series the target is T1, Human Nav1.7 (Homo sapiens, UniProt Q15858).
T1 construct: expressed in transfected cells; host or cells: Spiking HEK cells (without Kir2.1 transfection)
Put plainly: IonWorks Barracuda (IWB) automated patch clamp assay. In kind it is cell-based. Particulars: human Nav1.7 currents, HEK cells, population patch-clamp, state- and use-dependent voltage protocol; read-out: hNaV1.7 IWB-U IC50. The method, then: Ionaworks Barracuda […] Automated Patch Clamp Assay (Same Protocol for Both Human and Mouse)
Human Nav1.7 currents were recorded in population patch-clamp mode with the IWB automated electrophysiology system (Molecular Devices, LLC, Sunnyvale, Calif.). Spiking HEK cells (without Kir2.1 transfection) were cultured and prepared for recordings as previously described for IonWorks Quattro testing^1. The external solution consisted of the following (in mM): NaCl 140, KCl 5, CaCl2 2, MgCl2 1, HEPES 10, and glucose 11, pH 7.4, with N-methyl-D-glucamine at 320 mOsmol. […] From a holding potential of −110 mV, currents were elicited by a train of 26 depolarizations of 150 ms duration to −20 mV at a frequency of 5 Hz. Cells were then clamped to −20 mV for a period of 4 minutes in the presence of a single concentration of test compound. Following this compound incubation period, cells were clamped to −110 mV for three seconds to recover unbound channels and put through the same 26 pulse voltage protocol as above. Peak inward current during the 26th pulse to −20 mV in the presence of compound was divided by the peak inward current evoked by the 26th pulse to −20 mV in the absence of compound to determine percent inhibition. Concentration-response curves of percent inhibition as a function of concentration were generated to calculate IC50 values as described in Kornecook, T. J.; Yin, R.; Altmann, S.; et al. Pharmacologic Characterization of AMG8379, a Potent and Selective Small Molecule Sulfonamide Antagonist of the Voltage-Gated Sodium Channel NaV1. 7.
The potency of the compounds of the present invention were evaluated on human Nav1.7 channels using the above described IonWorks Barracuda automated electrophysiology platform that evaluates the ability of compounds to block sodium conductance through Nav1.7 channels. A voltage-protocol that prosecutes both state-dependent as well as use-dependent inhibition was used as these modes of action are thought to be more relevant for the native state of Nav1.7 channels in pain sensing neurons in vivo.
A general note: Patch clamp records ionic current or voltage across a cell membrane.

The source of these data is patent US20210387978A1, “CYCLOBUTYL DIHYDROQUINOLINE SULFONAMIDE COMPOUNDS” (AMGEN INC., priority 2020, published 2021).

T1 sequence (Q15858 whole entry): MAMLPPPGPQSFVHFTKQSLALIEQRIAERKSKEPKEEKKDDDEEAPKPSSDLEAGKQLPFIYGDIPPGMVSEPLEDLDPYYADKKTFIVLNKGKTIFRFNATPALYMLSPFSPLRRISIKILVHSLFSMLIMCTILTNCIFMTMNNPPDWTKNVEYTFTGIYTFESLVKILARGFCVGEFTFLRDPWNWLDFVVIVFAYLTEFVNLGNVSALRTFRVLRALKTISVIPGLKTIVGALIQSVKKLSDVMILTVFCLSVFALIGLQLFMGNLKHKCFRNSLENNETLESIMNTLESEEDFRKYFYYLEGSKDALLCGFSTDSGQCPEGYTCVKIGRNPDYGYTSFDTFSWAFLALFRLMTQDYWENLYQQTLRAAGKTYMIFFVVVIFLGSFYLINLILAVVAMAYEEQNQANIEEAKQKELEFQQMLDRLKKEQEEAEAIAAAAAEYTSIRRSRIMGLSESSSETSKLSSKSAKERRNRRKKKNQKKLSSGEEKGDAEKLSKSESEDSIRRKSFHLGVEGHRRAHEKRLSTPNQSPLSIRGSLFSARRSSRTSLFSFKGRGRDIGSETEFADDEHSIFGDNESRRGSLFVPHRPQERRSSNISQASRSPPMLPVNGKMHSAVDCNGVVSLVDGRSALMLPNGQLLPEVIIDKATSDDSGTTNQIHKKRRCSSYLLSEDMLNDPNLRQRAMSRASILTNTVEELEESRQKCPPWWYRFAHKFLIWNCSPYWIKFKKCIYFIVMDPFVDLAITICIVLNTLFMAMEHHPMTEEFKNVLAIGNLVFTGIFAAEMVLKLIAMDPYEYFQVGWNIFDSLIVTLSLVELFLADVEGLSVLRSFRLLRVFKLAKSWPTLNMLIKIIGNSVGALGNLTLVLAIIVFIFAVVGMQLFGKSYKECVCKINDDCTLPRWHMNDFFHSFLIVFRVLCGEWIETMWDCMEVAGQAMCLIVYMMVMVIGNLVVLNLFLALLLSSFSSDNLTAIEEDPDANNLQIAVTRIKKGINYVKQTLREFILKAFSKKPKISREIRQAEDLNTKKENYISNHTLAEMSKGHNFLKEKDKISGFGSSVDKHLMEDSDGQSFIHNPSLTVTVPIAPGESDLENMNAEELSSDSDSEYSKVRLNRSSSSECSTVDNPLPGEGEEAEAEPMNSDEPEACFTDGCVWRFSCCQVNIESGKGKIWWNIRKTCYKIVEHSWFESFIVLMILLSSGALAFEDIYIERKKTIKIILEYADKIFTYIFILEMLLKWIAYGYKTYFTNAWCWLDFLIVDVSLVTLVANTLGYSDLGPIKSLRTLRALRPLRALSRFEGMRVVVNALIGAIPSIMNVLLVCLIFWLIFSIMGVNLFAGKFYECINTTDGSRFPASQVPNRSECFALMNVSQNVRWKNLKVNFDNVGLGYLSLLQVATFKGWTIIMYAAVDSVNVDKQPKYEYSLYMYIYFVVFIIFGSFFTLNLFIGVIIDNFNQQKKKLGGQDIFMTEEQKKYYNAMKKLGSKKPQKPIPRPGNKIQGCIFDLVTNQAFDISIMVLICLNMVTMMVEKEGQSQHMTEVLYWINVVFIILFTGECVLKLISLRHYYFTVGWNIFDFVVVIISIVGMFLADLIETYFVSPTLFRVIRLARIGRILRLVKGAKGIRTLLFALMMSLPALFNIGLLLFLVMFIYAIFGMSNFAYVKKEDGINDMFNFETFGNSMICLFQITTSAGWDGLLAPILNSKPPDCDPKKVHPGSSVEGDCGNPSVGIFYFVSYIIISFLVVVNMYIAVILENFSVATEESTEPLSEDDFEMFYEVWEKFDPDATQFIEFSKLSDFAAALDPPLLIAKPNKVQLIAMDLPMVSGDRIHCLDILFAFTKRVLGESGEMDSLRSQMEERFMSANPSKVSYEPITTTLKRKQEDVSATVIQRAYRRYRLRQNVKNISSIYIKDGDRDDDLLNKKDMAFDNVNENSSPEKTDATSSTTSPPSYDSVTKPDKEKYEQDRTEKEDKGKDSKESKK

In the case of `COc1cc([C@H]2C[C@H](C(F)(F)F)C2)c(F)cc1-n1c(=O)ccc2cc(S(=O)(=O)Nc3ncccn3)ccc21` (atropisomer, axis not shown; (P)) [Example 15, trans-(P)-1-(5-fluoro-2-methoxy-4-(3-(trifluoromethyl)cyclobutyl)phenyl)-2-oxo-N-(pyrimidin-2-yl)-1,2-dihydroquinoline-6-sulfonamide], the “Hu CYP3A4 mRNA Induction (10 uM POC)” value in the series on CYP3A4 is on record as 36%. Besides, the IC50 (usually the point on the concentration scale where inhibition reaches its midpoint) at Human Nav1.7 amounted to 17 nM.

Consider `COc1cc([C@H]2C[C@H](C(F)(F)F)C2)c(C)cc1-n1c(=O)ccc2cc(S(=O)(=O)Nc3ncccn3)ccc21` (atropisomer, axis not shown; (P)) [Example 37, trans-(P)-1-(2-methoxy-5-methyl-4-(3-(trifluoromethyl)cyclobutyl)phenyl)-2-oxo-N-(pyrimidin-2-yl)-1,2-dihydroquinoline-6-sulfonamide], for which the “Hu CYP3A4 mRNA Induction (10 uM POC)” value with CYP3A4 was 49.51%.

For the compound `COc1cc([C@H]2C[C@H](C(F)(F)F)C2)c(F)cc1-n1c(=O)ccc2c(F)c(S(=O)(=O)Nc3ccon3)ccc21` (atropisomer, axis not shown; (P)) [Example 46, trans-(P)-5-fluoro-1-(5-fluoro-2-methoxy-4-(3-(trifluoromethyl)cyclobutyl)phenyl)-N-(isoxazol-3-yl)-2-oxo-1,2-dihydroquinoline-6-sulfonamide], in the series with CYP3A4, the “Hu CYP3A4 mRNA Induction (10 uM POC)” value is given as 6.6%. The IC50 at Human Nav1.7 was 8 nM.

For the compound `COc1cc(C2CCC2)c(Cl)cc1-n1c(=O)ccc2cc(S(=O)(=O)Nc3ncco3)ccc21` (atropisomer, axis not shown; (P)) [Example 32, (P)-1-(5-chloro-4-cyclobutyl-2-methoxyphenyl)-N-(oxazol-2-yl)-2-oxo-1,2-dihydroquinoline-6-sulfonamide], the “Hu CYP3A4 mRNA Induction (10 uM POC)” value in the series on CYP3A4 is on record as 88%. On Human Nav1.7, the IC50 was determined as 10 nM.

Take `COc1cc([C@H]2C[C@H](C(F)(F)F)C2)c(F)cc1-n1c(=O)ccc2cc(S(=O)(=O)Nc3ccon3)c(F)cc21` (atropisomer, axis not shown; (P)) [Example 40, (P)-7-fluoro-1-(5-fluoro-2-methoxy-4-((1R,3R)-3-(trifluoromethyl)cyclobutyl)phenyl)-N-(isoxazol-3-yl)-2-oxo-1,2-dihydroquinoline-6-sulfonamide]: at Human Nav1.7, the IC50 was determined as 5 nM.

For the compound `COc1cc([C@H]2C[C@H](C(F)(F)F)C2)c(F)cc1-n1c(=O)ccc2cc(S(=O)(=O)Nc3cccnn3)ccc21` (atropisomer, axis not shown; (P)) [Example 39, trans-(P)-1-(5-fluoro-2-methoxy-4-(3-(trifluoromethyl)cyclobutyl)phenyl)-2-oxo-N-(pyridazin-3-yl)-1,2-dihydroquinoline-6-sulfonamide], at Human Nav1.7, the IC50 is 11 nM.

In the case of `COc1cc(C2CCC2)c(C)cc1-n1c(=O)ccc2cc(S(=O)(=O)Nc3ncco3)ccc21` (atropisomer, axis not shown; (P)) [Example 34, (P)-1-(4-cyclobutyl-2-methoxy-5-methylphenyl)-N-(oxazol-2-yl)-2-oxo-1,2-dihydroquinoline-6-sulfonamide], the IC50 at Human Nav1.7 was determined as 28 nM.

Regarding `COc1cc(C2CC2)c(F)cc1-n1c(=O)ccc2cc(S(=O)(=O)Nc3ccon3)ccc21` [Compound X, 1-(4-cyclopropyl-5-fluoro-2-methoxyphenyl)-N-(isoxazol-3-yl)-2-oxo-1,2-dihydroquinoline-6-sulfonamide, reference compound], at Human Nav1.7, the IC50 was determined as 48 nM.

Regarding `COc1cc(C23CC(C(F)(F)F)(C2)C3)c(F)cc1-n1c(=O)ccc2cc(S(=O)(=O)Nc3ccon3)ccc21` (atropisomer, axis not shown; (P)) [Example 42, (P)-1-(5-fluoro-2-methoxy-4-(3-(trifluoromethyl)bicyclo[1.1.1]pentan-1-yl)phenyl)-N-(isoxazol-3-yl)-2-oxo-1,2-dihydroquinoline-6-sulfonamide], the IC50 on Human Nav1.7 is 6 nM.
